Read-outs that look alike come from different tables or passages of the source.
Legend:
[1] = Surfactant Log P estimate by reversed phase HPLC
Experimental: Reversed phase HPLC was performed on all samples. Samples were filtered through Gelman 0.45 um PVDF filters and analyzed. Almost all separations were utilized the following conditions:
Column: Supelcosil LC-18 column, 15 cm×4.6 mm, 5 um particle size (Supelco, Bellefonte, Pa.).
Flow: 1 ml/min. Temperature: ambient Injection Volume: 50 ul Mobile Phase A: 70:30 methanol: water (v+v) with 10 mM ammonium acetate.
Mobile Phase B: 100% methanol.
The ELSD was operated at 40° C., with a nitrogen flow rate of 1.8 l/min. A Chromeleon Chromatography Data system (Dionex Corp. Sunnyvale, Calif.) was used to collect and process the HPLC data.
A reversed phase HPLC method was used to estimate surfactant Log P values. The HPLC capacity factor, k′, for each material was determined according to the equation: […]
The column void time was determined from the elution time of unretained salt. […] (FIG. 6).
The reversed phase HPLC separation used herein separates primarily based on the size of the hydrophobe. […] The peak maximum retention time was used to determine the Log P estimate for surfactants with either the narrow or the broad single peak profiles. […] (FIG. 7). […] In addition, the retention time of the individual hydrophobe peaks was used to calculate Log P values for these oligomers.

[2] = Membrane filtration permeability, unsoiled system; format: physicochemical
Text: (§1) A Membrex Benchmark GX (Fairfield, N.J.) lab-scale rotating membrane filtration unit was used for all permeability studies. Membrane cartridges were made of polyacrylonitrile with a 0.05 um pore size (Part #0567, Osmonics Corp., Minnetonka, Minn.).
(§2) One to two liters of the aqueous alkaline solution of the present invention in its diluted form, usually including 0.15% surfactant and 0.05% potassium carbonate, was placed in both the customer (or initial) and holding tanks (appropriately sized glass beakers). For experiments with soil, oil was added at a 1% level to both tanks. The tanks were heated with magnetic stirring on hotplates to either 140° F. or 100° F. The temperature was maintained throughout each experiment with RTD temperature probes interfaced to the hotplates. The rotation rate of the membrane filtration unit was 3000 RPM. Material from the holding tank was pumped into the membrane filtration unit at a flow of 600 ml/min. The outlet pressure was adjusted to achieve a 5 psi pressure drop across the membrane, resulting in permeate flows of approximately 100-300 ml/min depending on the soil and the operating temperature. The transfer line from the customer tank to the holding tank was adjusted to equal the permeate flow rate in order to maintain a constant level in both customer and holding tank. One cycle or turnover is defined to be the time at which the cumulative volume of permeate equals the initial volume of the customer tank. Permeate samples were collected at 1, 5 and/or 10 cycles.
(§3) A 0.05 um PAN membrane was used in the filtration.
(§4) Surfactant levels in permeate samples were determined by TOC (unsoiled studies only) and by HPLC/ELSD.
(§5) A sample of the initial cleaning solution was collected before addition of oil (if added) and before starting membrane operation. This initial cleaning soultion sample is defined to be the 100% permeable concentration. Serial dilutions of the 100% permeable sample were made to obtain calibration samples for the HPLC analysis. Point-to-point calibration curves were used for HPLC quantitation due to the non-linear nature of the ELSD response. For TOC analysis the initial cleaning solution sample was used for the single point calibration. For surfactants with multiple surfactant oligomers, individual oligomer permeability and overall surfactant permeability were determined. The overall surfactant permeability was calculated from the average of the oligomer results, except for Surfonic® L108/85-5 where the result for major C8 hydrophobe was used.

[3] = Membrane filtration permeability, Pennzoil 80W90 soiled system; format: physicochemical; conditions: 1% oil, 140° F., HPLC
Text: as §1, §2, §3, §4, §5
(§6) Example 3 was performed in the same way as Example 2 but in the presence of soil. The method described in Example 2 was followed in Example 3. The permeability performance of surfactants in soiled systems is of interest given the desire to separate the aqueous cleaning materials from soil. Two oils were evaluated in this study: Cosmoline® 1102 and Pennzoil® 80W90 oil.

[4] = 1% aqueous solutions, Table H; cited from earlier work
[5] = Membrane filtration permeability, Cosmoline 1102 soiled system; format: physicochemical; conditions: 1% oil, 140° F., HPLC
Text: as §1, §2, §3, §4, §5, §6
The permeability of four surfactants was evaluated at 100° F. in the presence of 1% Cosmoline® 1102 oil. […] The results are listed in Table N and are plotted in FIG. 26 with a comparison to the 140° F. results.

[6] = known values used for calibration; cited from earlier work
[7] = unsoiled, Cycle 5, 140° F., HPLC (Table M)
[8] = single peak or individual hydrophobe peak, alkyl benzene standards
[9] = unsoiled, Cycle 1, 0.05 um PAN membrane
[10] = unsoiled, Cycle 5, 0.05 um PAN membrane
[11] = unsoiled, Cycle 10, 0.05 um PAN membrane

| Permeability, Pennzoil80W90-Cycle 5 [3] | Permeability, Cosmoline 1102-Cycle 5 [5] | LogP, HPLC estimate [1] | % Permeability ([2]; not told) | Compound | Cloud Point (° C.) [4] | also measured |
| --- | --- | --- | --- | --- | --- | --- |
| – | – | – | – | CCc1ccccc1 [ethyl benzene] | – | Log P of alkylbenzene retention time standards [6]: 3.13 |
| – | – | – | – | CCCCCCc1ccccc1 [hexyl benzene] | – | Log P of alkylbenzene retention time standards [6]: 5.24 |
| – | – | – | – | CCCCCCCCc1ccccc1 [octyl benzene] | – | Log P of alkylbenzene retention time standards [6]: 6.30 |
| 97% | 74% | 2.5 | 104% | C8 mono-glucoside [Glucopon ® 425/C8] | – | – |
| 77% | 22% | 3.2 | 87% | C10 mono-glucoside [Glucopon ® 425/C10] | – | – |
| 49% | <20% | 4.3 | 44% | C12 mono-glucoside [Glucopon ® 425/C12] | – | – |
| 39% | <20% | 5.2 | 35% | C14 mono-glucoside [Glucopon ® 425/C14] | – | – |
| – | 9% | 3.6 | – | cocamidopropyl betaine ammonium salt [Foamtaine ® CAB-A] | None | – |

| Compound | Permeability, Pennzoil80W90-Cycle 5 [3] | Permeability, Cosmoline 1102-Cycle 5 [5] | LogP, HPLC estimate [1] | % Permeability ([2]; not told) | Cloud Point (° C.) [4] | also measured |
| --- | --- | --- | --- | --- | --- | --- |
| CCCCCCCCCCCC[N+](C)(C)[O-] [Barlox ® 12, dodecyl dimethyl amine oxide] | 63% | – | – | – | None | chromatographic logP [1]: 4.5; % Permeability [2, 7]: 80% |
| CCCCCCCC[N+](C)(C)[O-] [Mackamine ® C8, linear octyl dimethyl amine oxide] | 95% | 95% | – | – | None | LogP, HPLC estimate [1, 8]: 2.5; % Permeability (HPLC) [2, 9]: 104%; % Permeability (TOC) [2, 9]: 101%; % Permeability (HPLC) [2, 10]: 105%; % Permeability (TOC) [2, 10]: 108%; % Permeability [2, 7]: 105%; % Permeability (HPLC) [2, 11]: 102%; % Permeability (TOC) [2, 11]: 117%; Permeability, Cosmoline 1102-Cycle 1 [5]: 94%; Permeability, Cosmoline 1102-Cycle 10 [5]: 99% |
| CCCCCCCCCC[N+](C)(C)[O-] [Mackamine ® C10, linear decyl dimethyl amine oxide] | – | 53% | – | – | None | LogP, HPLC estimate [1, 8]: 3.4 |

— US20040014624A1, “Recylable cleaning compositions” (priority 2003, published 2004)
